This is an account of results in patent US4016159A, “Acylamino-cephem-carboxylic acids containing an amidino or guanidino group in the molecule” (Hoechst Aktiengesellschaft, priority 1973, dated 1977).

What all share (format): cell-based
Test [1] deals with Staphylococcus aureus 285. Kind of test: Minimum inhibition concentration (MIC), Table 1. Conditions: for MIC: Staphylococcus aureus, 285, Germ: Staphylococcus aureus 285, read-out: Minimum inhibition concentration (MIC). The source says: (§1) Minimum inhibition concentration (MIC) in γ/ml
Germ: Staphylococcus aureus 285

A further test has as its system Streptococcus pyogenes A. Kind of test: Minimum inhibition concentration (MIC), Table 3. Conditions: Germ: Streptococcus pyogenes A; for MIC: read-out: Minimum inhibition concentration MIC. An excerpt: Minimum inhibition concentration MIC in γ/ml
Germ: Streptococcus pyogenes A

In another test the test system is Proteus mirabilis. Nature of the test: Minimum inhibition concentration (MIC), Table 2. Also on record: Minimum inhibition concentration (MIC): unit not given here. Conditions: Germ: Proteus mirabilis; for MIC: read-out: Minimum inhibition concentration (MIC). An excerpt:
Minimum inhibition concentration (MIC) in /ml

In the next test the test system is Streptococcus D. Nature of the test: Minimum inhibition concentration (MIC), Table 4. Conditions: Germ: Streptococcus D; for MIC: Streptococcus, read-out: Minimum inhibition concentration (MIC).
Text: as §1

Structures are written as SMILES. Converted amounts (≈) assume the structure as drawn.

On to `Cc1nnc(SCC2=C(C(=O)O)N3C(=O)C(NC(=O)Cc4ccc(C(=N)N)s4)C3SC2)s1` (centres unmarked) [Example 2, 3-[(5-methyl-1,3,4-thiadiazole-2-yl)-thiomethyl]-7-(5-amidinothienylacetamido)-Δ-3-cephem-4-carboxylic acid], for which the MIC in test [1] is 0.156 to 0.391 µg/mL (≈ 0.305 to 0.766 µM); with Streptococcus pyogenes A, 0.008 to 0.0156 µg/mL (≈ 0.0157 to 0.0305 µM); in the test with Proteus mirabilis, 25 µg/mL (≈ 49 µM); with Streptococcus D, 10 to 50 µg/mL (≈ 19.6 to 97.9 µM).
In the case of `Cc1nnc(SCC2=C(C(=O)O)N3C(=O)C(NC(=O)Cc4ccc(C5=NCCCN5)cc4)C3SC2)s1` (centres unmarked) [Example 11, 3-[(5-methyl-1,3,4-thiadiazole-2-yl)-thiomethyl]-7-[4-(1,4,5,6-tetrahydro-pyrimide-2-yl)-phenylacetamido]-Δ 3-cephem-4-carboxylic acid], the MIC in test [1] was 0.5 to 1.25 µg/mL (≈ 0.918 to 2.29 µM); in the test with Streptococcus pyogenes A, 0.008 to 0.0156 µg/mL (≈ 0.0147 to 0.0286 µM); with Proteus mirabilis, 3.1 to 12.5 µg/mL (≈ 5.69 to 22.9 µM); with Streptococcus D it was 10 to 50 µg/mL (≈ 18.4 to 91.8 µM).
The matching figures for `Cc1nnc(SCC2=C(C(=O)O)N3C(=O)C(NC(=O)Cc4ccc(C5=NCCN5)cc4)C3SC2)s1` (centres unmarked) [Example 12, 3-[(5-methyl-1,3,4-thiadiazole-2-yl)-thiomethyl]-7-[4-(imidazoline-2-yl)-phenylacetamido]-Δ 3-cephem-4-carboxylic acid]: 0.156 to 0.391 µg/mL (≈ 0.294 to 0.737 µM), 0.008 to 0.0156 µg/mL (≈ 0.0151 to 0.0294 µM), 3.1 to 12.5 µg/mL (≈ 5.84 to 23.6 µM) and 0.196 to 6.25 µg/mL (≈ 0.369 to 11.8 µM).
The matching figures for `O=C(Cc1ccc(C2=NCCCN2)cc1)NC1C(=O)N2C(C(=O)O)=C(CSc3nncs3)CSC12` (centres unmarked) [Example 19, 3-[(1,3,4-thiadiazole-2-yl)-thiomethyl]-7-[4-(1,4,5,6-tetrahydropyrimide-2-yl)-phenylacetamido]-Δ 3-cephem-4-carboxylic acid]: 0.5 to 1.25 µg/mL (≈ 0.942 to 2.36 µM), 0.000391 to 0.0078 µg/mL (≈ 0.000737 to 0.0147 µM), 3.1 to 12.5 µg/mL (≈ 5.84 to 23.6 µM) and 10 to 50 µg/mL (≈ 18.8 to 94.2 µM).
The matching figures for `CCCc1nnc(SCC2=C(C(=O)O)N3C(=O)C(NC(=O)Cc4ccc(C(=N)N)cc4)C3SC2)o1` (centres unmarked) [Example 44, 3-[(5-n-propyl-1,3,4-oxadiazole-2-yl)-thiomethyl]-7-(4-amidino-phenylacetamido)-Δ 3-cephem-4-carboxylic acid]: 0.156 to 0.391 µg/mL (≈ 0.302 to 0.757 µM), 0.000391 to 0.0078 µg/mL (≈ 0.000757 to 0.0151 µM), 3.1 to 12.5 µg/mL (≈ 6 to 24.2 µM) and 10 to 50 µg/mL (≈ 19.4 to 96.8 µM).
In the case of `Cn1nnnc1SCC1=C(C(=O)O)N2C(=O)C(NC(=O)Cc3ccc(C(=N)N)cc3)C2SC1` (centres unmarked) [Example 89, 3-[(1-methyl-1H-tetrazole-5-yl)-thiomethyl]-7-[4-amidino-phenylacetamido]-Δ 3-cephem-4-carboxylic acid], the MIC lay in the range of 0.156 to 0.391 µg/mL (≈ 0.319 to 0.8 µM) in test [1], 0.008 to 0.0156 µg/mL (≈ 0.0164 to 0.0319 µM) with Streptococcus pyogenes A, 3.1 to 12.5 µg/mL (≈ 6.35 to 25.6 µM) in the test on Proteus mirabilis and 10 to 50 µg/mL (≈ 20.5 to 102 µM) in the test on Streptococcus D.
As for `O=C(Cc1ccc(C2=NCCCN2)cc1)NC1C(=O)N2C(C(=O)O)=C(CSc3nnc[nH]3)CSC12` (centres unmarked) [Example 94, 3-[(triazole-2-yl)-thiomethyl]-7-[4-(1,4,5,6-tetrahydro-pyrimide-2-yl)-phenylacetamido]-Δ3-cephem-4-carboxylic acid], the “Minimum inhibition concentration (MIC)” value in test [1] (Germ: Staphylococcus aureus 285) is 1.6 to 2.5 µg/mL; with Streptococcus pyogenes A, 0.008 to 0.0156 µg/mL; in the test with Proteus mirabilis, 25; in the test with Streptococcus D, 10 to 50 µg/mL.
In the case of `O=C(Cc1ccc(C2=NCCCN2)cc1)NC1C(=O)N2C(C(=O)O)=C(CSc3ccncc3)CSC12` (centres unmarked) [Example 97, 3-(4-pyridyl-thiomethyl)-7-[4-(1,4,5,6-tetrahydropyrimide-2-yl)-phenylacetamido]-Δ3-cephem-4-carboxylic acid], the MIC is 1.6 to 2.5 µg/mL (≈ 3.06 to 4.77 µM) in test [1], 0.000391 to 0.0078 µg/mL (≈ 0.000747 to 0.0149 µM) in the test with Streptococcus pyogenes A, 25 µg/mL (≈ 47.7 µM) in the test on Proteus mirabilis and 10 to 50 µg/mL (≈ 19.1 to 95.5 µM) in the test on Streptococcus D.
With `O=C(Cc1ccc(C2=NCCCN2)cc1)NC1C(=O)N2C(C(=O)O)=C(CSc3cccc[n+]3[O-])CSC12` (centres unmarked) [Example 107, 3-[(1-oxido-2-pyridyl)-thiomethyl]-7-[4-(1,4,5,6-tetrahydropyrimide-2-yl)-phenylacetamido]-Δ3-cephem-4-carboxylic acid], the MIC in test [1] was 1.6 to 2.5 µg/mL (≈ 2.96 to 4.63 µM); in the test with Proteus mirabilis, 25 µg/mL (≈ 46.3 µM); with Streptococcus D, 10 to 50 µg/mL (≈ 18.5 to 92.7 µM).
